Results as given in PMC4450297, “Screening Active Compounds from Garcinia Species Native to China Reveals Novel Compounds Targeting the STAT/JAK Signaling Pathway” (BioMed Research International, 2015).

Assays:
[1] = test system: NCI-H1650; assay: Cell proliferation assay (CellTiter-Glo); type: cell-based, human; conditions: Homo sapiens, NCI-H1650, 72 h, NCI-H1650 cells, 20 μM to 0.009 μM in serial 3-fold dilutions
Experimental: (§1) All cells were obtained from the cell bank of the American Type Culture Collection (ATCC) and cultured in the supplier's recommended media supplemented with 10% FBS. The cell panel screen was measured using the CellTiter-Glo assay (Promega, Madison, WI) following a standard protocol. Briefly, cancer cells were seeded in 96-well plates and cultured overnight at 37°C with or without 5% CO2 in an incubator. Each compound was dissolved with limited DMSO and diluted to a certain concentration with culture medium and then added to the corresponding well of the cell plate. The final concentration of compound was 20 μM. The control cells (without treatment) received the same amount of DMSO and were incubated under the same conditions. After 72 h cultivation, 100 μL of the CellTiter-Glo reagent was added directly to each well for 10-minute incubation. The plate was then read on a FlexStation 3 microplate luminometer (Molecular Devices, USA) to monitor the luminescence signal generated by the luciferase-catalyzed reaction of luciferin and ATP. The percent of growth inhibition was calculated using the following formula: (untreated cells − treated cells)/(untreated cells − background without cells) ∗ 100.
(§2) For proliferation assays, the CellTiter-Glo assay (Promega, Madison, WI) was used to evaluate the proliferation of cancer cells treated with test compounds as described above. Each compound was dissolved in limited DMSO and diluted to various concentrations with culture medium and then added to the corresponding wells. A dose-response curve was plotted, and the IC50 was calculated using XLfit software.

[2] = test system: SW954; assay: Cell proliferation assay (CellTiter-Glo); type: cell-based; conditions: Homo sapiens, SW 954, SW954 cells, 72 h
Experimental: as §1, §2

[3] = test system: SW1353; assay: Cell proliferation assay (CellTiter-Glo); type: cell-based; conditions: Homo sapiens, SW1353 cells, 72 h
Experimental: as §1, §2

[4] = test system: NCI-H1993; assay: Cell proliferation assay (CellTiter-Glo); type: cell-based; conditions: Homo sapiens, NCI-H1993 cells, 72 h
Experimental: as §1, §2

[5] = test system: A549; assay: Cell proliferation assay (CellTiter-Glo); type: cell-based; conditions: Homo sapiens, A549 cells, 72 h
Experimental: as §1, §2

[6] = test system: CHP212; assay: Cell proliferation assay (CellTiter-Glo); type: cell-based; conditions: Homo sapiens, CHP-212, CHP212 cells, 72 h
Experimental: as §1, §2

[7] = test system: NCI-H838; assay: Cell proliferation assay (CellTiter-Glo); type: cell-based; conditions: Homo sapiens, NCI-H838 cells, 72 h
Experimental: as §1, §2

[8] = test system: HuVec; assay: Cell proliferation assay (CellTiter-Glo), control cell line; type: cell-based; conditions: Homo sapiens, 72 h
Experimental: as §1, §2

[9] = test system: STAT3 activation in multiple cancer cell lines; set-up: method as in PMID 21490133; conditions: cited from earlier work

SMILES	IC50 [1] [nM]	IC50 [2] [nM]	IC50 [3] [nM]	IC50 [4] [nM]	IC50 [5] [nM]	IC50 [6] [nM]	IC50 [7] [nM]	IC50 [8] [nM]	STAT3 activation upon IL-6 treatment [9]
CN[C@@H]1C[C@H]2O[C@@](C)([C@@H]1OC)n1c3ccccc3c3c4c(c5c6ccccc6n2c5c31)C(=O)NC4 [Staurosporine, staurosporine, reference compound]	22 ± 4	6 ± 1	4 ± 1	21 ± 7	8 ± 2	4 ± 1	11 ± 4	4 ± 2	
CC(C)=CCC[C@]1(C)C=Cc2c(O)c3c(c(CC=C(C)C)c2O1)O[C@]12C(=C[C@@H]4C[C@H]1C(C)(C)O[C@@]2(C/C=C(/C)C(=O)O)C4=O)C3=O [gambogic acid]									able to inhibit STAT3 activation
